System: B-RBD-D211A, D213A
Assay: BRET-titration Gal1/B-RBD-D211A, D213A
Type: cell-based, human
Settings: versus wild-type, n = 3

## Gal1: galectin-1, H-Ras nanocluster scaffold
  BRETtop, Gal1/B-RBD-D211A, D213A: significantly reduced
